Patent publication US20200404907A1, “METHOD OF REDUCING CROP DAMAGE” (BAYER AKTIENGESELLSCHAFT, priority 2018, published 2020)

Columns and labels:
[1] = tested on: wheat seeds (winter wheat, TRZAW); assay: Method C: safener seed treatment then post-emergence herbicide plus safener tank mix, visual crop damage; type: in vivo
Protocol: (§1) For the safener seed treatment, sufficient seeds were weighed into screw top glass bottles approximately twice the volume of the seeds.
(§2) The safener (mefenpyr-diethyl, formulated as suspension concentrate (SC)) was weighed out so that the required rates (g a.i./kg seed) would be obtained, dissolved in water (1 ml water per 10 g of seeds), and added to the seeds to produce a slurry.
(§3) The bottles were capped and then placed in an overhead shaker (set at medium speed for up to 1 hour) so that the seeds were evenly coated with the slurry. The bottles were uncapped and the seeds were sown as described above.
(§4) For the seed treatment process, the blind formulation (the SC formulation without the safener mefenpyr-diethyl) was used as seed treatment as described above.

[2] = tested on: wheat seeds (winter wheat, TRZAW); assay: Method A: safener seed treatment then post-emergence herbicide, visual crop damage in greenhouse pots; type: in vivo
Protocol: as §1, §2, §3, §4

[3] = tested on: wheat seeds (winter wheat, TRZAW); assay: Method D: safener seed treatment then pre-emergence herbicide plus safener tank mix, visual crop damage; type: in vivo
Protocol: as §1, §2, §3, §4

[4] = tested on: wheat seeds (winter wheat, TRZAW); assay: Prior-art method: post-emergence herbicide and tank-mix safener, visual crop damage in greenhouse pots; conditions: herbicide 200 g/ha post-emergence (BBCH11); no safener; 14 days after application; mean of at least 3 replicates
[5] = safener seed treatment 0.5 g/kg only, no herbicide
[6] = herbicide 200 g/ha post-emergence (BBCH11), no safener, 14 days after application

Row | Compound | % crop damage ([1]; safener 200 g/ha in tank mix post-emergence only, no herbicide, 14 days after application) | % crop damage [1, 5] | % crop damage [2, 5] | % crop damage ([3]; safener 200 g/ha in tank mix pre-emergence only, no herbicide, 14 days after application) | % crop damage [3, 5] | % crop damage [1, 6] | % crop damage [2, 6] | % crop damage ([3]; herbicide 50 g/ha pre-emergence, no safener, 14 days after application) | % crop damage [4]
1 | CCOC(=O)C1=NN(c2ccc(Cl)cc2Cl)C(C)(C(=O)OCC)C1 (stereo not drawn) [Safener seed treatment, ethyl 1-(2,4-dichlorophenyl)-5-(ethoxycarbonyl)-5-methyl-2-pyrazoline-3-carboxylate] | 5% | 0% | 0% | 5% | 2% | – | – | – | –
2 | Cc1ccccc1CO[C@@H]1C[C@@]2(C(C)C)CC[C@]1(C)O2 (racemic) [Herbicide post-em., Cinmethylin] | – | – | – | – | – | 28% | 28% | 17% | 28%
